Data as given in article PMC9586926, “An efflux-susceptible antibiotic-adjuvant with systemic efficacy against mouse infections” (Scientific Reports, 2022).
pIC50: −log10 of the molar value. Where a SMILES comes first, the peptide text is derived from it. [ ]: non-standard residue; d: D form. The star is where a group is joined. 12Ado = NCCCCCCCCCCCC(=O)O; Decanoyl = CCCCCCCCCC(=O)*; Dab = NCC[C@H](N)C(=O)O

What was measured:
RAW 264.7 = experiment: Cytotoxicity, Alamar blue; assay type: cell-based, murine; conditions: 24 h incubation, read-out: IC50 RAW 264.7 (50% inhibition of cells respiration)
Procedure: Cell lines used in this study included murine RAW 264.7 macrophages and human embryonic kidney HEK-293FT cells (ATCC, Biological Industries, Beit Haemek, Israel). Cells were grown in Dulbecco’s modified eagle medium (DMEM) containing […] glucose, L-glutamine, sodium bicarbonate and sodium pyruvate, supplemented with 10% fetal bovine serum and pen-strep, at 37 °C and 5% CO2.
Lipopeptides cytotoxicity was determined using fluorescent measurements of reduced resazurin. 2 × 10^4 cells were first cultured in 96-well plates over-night (final volume of 100 µl) at 37 °C and 5% CO2. Then, the medium was removed and cells were incubated for an additional 24 h with serial twofold dilutions of the lipopeptides in growth medium. Then, 10 µl of Alamar blue were added and plates were incubated for 3 h, after which fluorescence (excitation: 530 nm; emission: 590 nm) of the reduced resazurin was recorded (BioTek Instruments Synergy HT; Winooski, VT, USA).

[1] = Binding to lipopolysaccharide, displacement of mono-dansylated polymyxin B; design: species or system E. coli; conditions: 2 µM DPMB, 3 µg/ml LPS, 1.5 h, compared with PMB; two independent experiments
Procedure: Affinity to lipopolysaccharide (LPS) was assessed using fluorescent measurements of displaced mono-dansylated polymyxin B (DPMB)[68]. 180 µl of 5 mM HEPES containing 2 µM DPMB and 3 µg/ml LPS (from E. coli) were dispensed into black microtiter plates and mixed with 20 µl of HEPES containing serial twofold dilutions of lipopeptides. Plates were incubated in the dark for 1.5 h at room-temperature and fluorescence (excitation: 340 nm; emission: 485 nm) was recorded immediately thereafter (BioTek Instruments Synergy HT; Winooski, VT, USA).

[2] = […] S.C., mice plasma, UPLC-MS
Procedure: Animal procedures were reviewed and approved by the Institutional Animal Care and Use Committee (ethics no. IL-0800519, IL-0760711, IL-0550618, IL-0320320, IL-1270821) and performed in accordance with the “Guide for the Care and Use of Laboratory Animals”, published by the US National Research Council[70]. The study is reported in accordance with ARRIVE guidelines. All protocols employed 4–5-week-old male ICR mice, weighing 20–25 g (Envigo; Jerusalem, Israel). Mice were kept on a 12 h light/dark cycle and provided with food and water ad-libitum. At the designated experimental end-points mice were euthanized by means of CO2 asphyxiation. […]
To assess lipopeptides circulating concentrations, mice (N = 3 per group) were S.C. administered with lipopeptides solutions (0.2 ml), sacrificed at specified times afterwards and their blood was aseptically collected. […] 0.5 ml of the supernatant were diluted 2-folds with Milli-Q water and analyzed by UPLC-MS using a C18 column. Quantification was performed using a calibration-curve generated with similarly processed blood samples, initially spiked with known lipopeptide concentrations. […] Quantification was performed using a calibration-curve generated with fresh lipopeptide solutions of known concentrations prepared in Milli-Q water.

E. coli 25922 = experiment: Growth / time-kill kinetics; assay type: cell-based, Escherichia coli; conditions: 10 µM C10BBc12B, 1 µg/ml erythromycin or 20 ng/ml rifampin alone
Procedure: Antimicrobials mode of action was determined according to the rate of bacterial killing. Varying concentrations of lipopeptides, antibiotics and combinations thereof were mixed in LB medium with 5 × 10^5 CFU/ml of bacteria (final volume of 1 ml) and incubated at 37 °C with shaking. At the designated time-points aliquots were serially tenfold diluted in saline, plated on LB agar, and incubated over-night at 37 °C for enumeration.

P. aeruginosa = experiment: MIC, broth microdilution; assay type: cell-based, Pseudomonas aeruginosa; conditions: broth microdilution in LB, 18–24 h, 37 °C; n = 3 strains
Source text: Bacteria used in this study consisted of standard American Type Culture Collection (ATCC; Biological Industries, Beit Haemek, Israel) strains, clinically isolated (CI; Sourasky Medical Center, Tel Aviv, Israel) strains, as well as isogenic mutant strains. Gram-negative bacteria included Acinetobacter baumannii ATCC 19606; Escherichia coli ATCC 25922, 35218, CFT073, CI 14384, 16327, and the isogenic pair Ag100 (wild-type) and its efflux deficient mutant Ag100a (ΔacrAB); Klebsiella pneumoniae CI 1287, 224; Pseudomonas aeruginosa ATCC 27853, CI 1278, 8634; Salmonella enterica serovar Typhimurium ATCC 14028 (wild-type) and its isogenic efflux deficient mutant ΔacrAB. Bacteria were grown in Luria–Bertani broth (LB; 5 g/l NaCl, 5 g/l yeast extract, 10 g/l tryptone; pH = 7.0) at 37 °C with shaking. Over-night cultures were diluted 10-folds into fresh growth-medium and incubated at 37 °C with shaking until reaching mid-logarithmic phase. Then, bacterial concentrations were adjusted using O.D.600 nm measurements, and bacteria were subjected to the experimental procedures listed herein.
MIC was determined according to the broth microdilution method: antimicrobials were subjected to serial twofold dilutions in LB medium, and incubated with 5 × 10^5 CFU/ml of bacteria (final volume of 200 µl) for 18–24 h at 37 °C. Then, O.D.620 nm was measured (BioTek Instruments Synergy HT; Winooski, VT, USA), and the MIC was defined as the lowest antimicrobial concentration for which no increase in O.D.620 nm was evident, compared to the untreated control.

murine RBC = experiment: Hemolysis; assay type: cell-based; conditions: 1% hematocrit murine RBC, 3 h, 37 °C
Procedure: Permeabilization of red blood cells (RBC) was evaluated using absorbance measurements of extracellular hemoglobin. Serial twofold dilutions of lipopeptides were incubated with 1% hematocrit of murine RBC for 3 h at 37 °C with shaking. Samples were then centrifuged at 20,000 RCF for 5 min, and absorbance of the supernatants was measured at 450 nm (BioTek Instruments Synergy HT; Winooski, VT, USA). Percent hemolysis was then calculated by (AS − AN)/(AP − AN) × 100; where AS, AN, and AP represent the absorbance of the sample, negative control (PBS) and positive control (Milli-Q water), respectively. LC50 values were extracted from trend-lines generated for linear-regions of plots correlating lipopeptide concentrations and percent hemolysis.

CCCCCCCCCC(=O)N[C@@H](CCN)C(=O)N[C@@H](CCN)C(=O)NCCCCCCCCCCCC(=O)N[C@@H](CCN)C(N)=O [C10BBc12B, decanoyl-bis.diaminobutyrate-aminododecanoyl-diaminobutyrate-amide] (Decanoyl-[Dab][Dab][12Ado][Dab]-NH2)
pIC50 (RAW 264.7): < 4.30 | displacement of LPS-bound DPMB [1]: inferior ability | time with antibiotics potentiating concentrations (≥ 2.5 µg/ml) maintained [2]: > 2 h | time after which most lipopeptide cleared from the bloodstream ([2]; n = 3 per time point): ~ 180 min | effect on bacterial proliferation, individual agent (E. coli 25922): unable to significantly alter bacterial proliferation | MIC P. aeruginosa (n=3) (P. aeruginosa): ≥ 50 µM | LC50 Erythrocytes (50% hemolysis) (murine RBC): > 50 µM
